Test results as given in patent US20100298305A1, “TIZANIDINE FOR THE TREATMENT OF POST-TRAUMATIC STRESS DISORDER AND NIGHTMARES” (The United States Government, as represented by the …, priority 2008, published 2010).
Where two headings read alike, the source gives them in different places.

What was measured:
[1] = tested on: PTSD; assay: Example 2 case summaries 7-9: switching from once to twice-daily dosing of tizanidine; conditions: for improvement on medications: approximately one year, doses close to the maximum recommended dose
Method: They were continued on aripiprazole, quetiapine, sertraline, and trazodone. Treatment with tizanidine was started for the nightmares and poor sleep.
They were switched from tizanidine 8 mg at bedtime to tizanidine 6 mg in the morning and 8 mg at bedtime. […] They continued on the sertraline, divalproex, and trazodone for initial insomnia. The tizanidine was switched to 4 mg in the morning and 4 mg at bedtime.
Subject was started on tizanidine up to 8 mg at bedtime for nightmares. They also were issued a device to assist with memory problems. A rating scale for common cognitive problems was administered by speech pathology prior to issuing them a personal digital assistant as a memory assist device.
They continued to take sertraline and tizanidine. At a psychology evaluation session, subject completed two self-report instruments of PTSD and depressive symptoms to establish a baseline indication of symptom severity. […] Subject was then switched from tizanidine 8 mg at bedtime to 4 mg twice daily.
After approximately one year of being followed in the psychiatry clinic, they became more willing to try medication and agreed to a trial of tizanidine.

[2] = tested on: PTSD; conditions: Case 10; for ADHD symptoms: earlier medication trials during military service
Source text: Given the prior history of ADHD, methylphenidate was cautiously added to the venlafaxine. […] They were referred to a specialty inpatient program for PTSD. During the inpatient program, the antidepressant was switched from venlafaxine to duloxetine.

[3] = tested on: PTSD; assay: Example 1 case summaries 1-6: tizanidine as adjunctive treatment for PTSD, anxiety, depression, psychosis or impaired cognition; assay type: in vivo, human; conditions: for signs or symptoms: Case 3, more than two years, sertraline 250 mg daily, divalproex sodium 2500 mg daily, quetiapine 100 mg twice daily and 400 mg at bedtime, amitriptyline 25 mg at bedtime, tramadol 50 mg as needed
Method: Treatment was begun with sertraline 100 mg per day for anxiety and nortriptyline 25 mg at bedtime for headaches. […] Treatment with tizanidine was started and the dose was increased to 8 mg at bedtime.
Tizanidine was started and titrated up to 4 mg at bedtime along with aripiprazole (15 mg at bedtime) and clonazepam (0.5 mg daily).
These medications included sertraline (250 mg daily), divalproex sodium (2500 mg daily), quetiapine (100 mg twice daily and 400 mg at bedtime), amitriptyline (25 mg at bedtime), and tramadol (50 mg as needed for severe headache). […] A trial of tizanidine was started and the dose was titrated up to 8 mg at bedtime.
Pharmacologic Treatment and Response: While on the psychiatry unit, they were treated with sertraline for PTSD and nortriptyline for headaches and depression. […] They were started on tizanidine 4 mg at bedtime.
After approximately one year, subject agreed to a trial of tizanidine as an addition to sertraline. […] They agreed to increase the dose to 4 mg at bedtime and follow-up in four weeks. […] An atypical antipsychotic medication, aripiprazole, was added to their medications.
Treatment with tizanidine 4 mg at bedtime was added to the existing sertraline.

[4] = Case 1, sertraline 100 mg per day with nortriptyline 25 mg at bedtime, after four weeks
[5] = Case 4, sertraline with nortriptyline, five days after hospital discharge
[6] = Case 8, sertraline 150 mg per day, two months later

Compound: O=C1CCc2ccc(OCCCCN3CCN(c4cccc(Cl)c4Cl)CC3)cc2N1 [aripiprazole]
- improvement on medications ([1]; Case 7): only modest improvement

Compound: CNCC[C@H](Oc1cccc2ccccc12)c1cccs1 [duloxetine]
- helpfulness as judged by subject ([2]; antidepressant switched from venlafaxine to duloxetine): did not believe the duloxetine was helpful

Compound: OCCOCCN1CCN(C(c2ccccc2)c2ccc(Cl)cc2)CC1 (stereo not shown) [hydroxyzine]
- improvement on medications ([1]; Case 7): only modest improvement

Compound: COc1cccc(C2(O)CCCCC2CN(C)C)c1 (stereo not shown) [tramadol]
- signs or symptoms [3]: None of these medications significantly reduced their signs or symptoms

Compound: Cc1ccc(-c2nc3ccc(C)cn3c2CC(=O)N(C)C)cc1 [zolpidem]
- nightmares ([1]; Case 8, initial treatment with zolpidem): did not improve the nightmares

Compound: CCCC(CCC)C(=O)O [divalproex sodium]
- signs or symptoms [3]: None of these medications significantly reduced their signs or symptoms
- improvement on medications ([1]; Case 7): only modest improvement

Compound: COC(=O)C(c1ccccc1)C1CCCCN1 (stereo not shown) [methylphenidate]
- ADHD symptoms [2]: neither of which were effective
- mood and anxiety symptoms ([2]; methylphenidate added to venlafaxine): marked improvement
- mood and anxiety symptoms ([2]; methylphenidate as monotherapy, several weeks): improved mood and anxiety symptoms
- mood, anxiety, and cognitive symptoms ([2]; short-acting methylphenidate 10 mg three times daily): additional improvements

Compound: COc1cc2nc(N3CCN(C(=O)c4ccco4)CC3)nc(N)c2cc1OC [prazosin]
- nightmares ([3]; Case 2, prazosin 5 mg at bedtime added, sertraline increased to 200 mg daily): reduced but did not eliminate nightmares

Compound: COc1ccc(C(CN(C)C)C2(O)CCCCC2)cc1 (stereo not shown) [venlafaxine]
- condition ([3]; Case 2, sertraline switched to venlafaxine up to 300 mg daily, six months): did not significantly change their condition
- adverse effect ([1]; Case 8, Venlafaxine up to 150 mg daily): developed akathisia
- mood and anxiety symptoms ([2]; venlafaxine sustained-release 225 mg per day with zolpidem 10 mg at bedtime): only modestly improved

Compound: CC(NC(C)(C)C)C(=O)c1cccc(Cl)c1 (stereo not shown) [bupropion]
- ADHD symptoms [2]: neither of which were effective

Compound: CN(C)CCC=C1c2ccccc2CCc2ccccc21 [amitriptyline]
- signs or symptoms [3]: None of these medications significantly reduced their signs or symptoms

Compound: CN[C@H]1CC[C@@H](c2ccc(Cl)c(Cl)c2)c2ccccc21 [sertraline]
- anxiety, depression, and psychosis [3, 4]: only a modest decrease
- intensity and frequency of nightmares [3, 4]: unchanged
- anxiety, nightmares, and psychosis ([3]; Case 2, sertraline 200 mg daily, bupropion 150 mg twice daily and prazosin 5 mg at bedtime, one year): only a mild impact
- signs or symptoms [3]: None of these medications significantly reduced their signs or symptoms
- hallucinations and paranoia [3, 5]: improvements regarding hallucinations and paranoia
- sleep problems and nightmares [3, 5]: persistent sleep problems and nightmares
- response to medication changes ([3]; Case 5, sertraline increased to 200 mg per day with sodium divalproex and aripiprazole added, twelve months): only a modest response
- treatment results ([3]; Case 5, sertraline since release from military duty): poor results
- PTSD signs and symptoms ([3]; Case 6, sertraline up to 200 mg per day, approximately one year): only modest improvement
- improvement on medications ([1]; Case 7): only modest improvement
- anxiety symptoms [1, 6]: responded well
- irritability [1, 6]: not improved

Compound: O=c1n(CCCN2CCN(c3cccc(Cl)c3)CC2)nc2ccccn12 [trazodone]
- improvement on medications ([1]; Case 7): only modest improvement

Compound: CC1(C)O[C@@H]2[C@@H](CO[C@@]3(COS(N)(=O)=O)OC(C)(C)O[C@@H]23)O1 [topiramate]
- frequency of combined visual-olfactory hallucinations ([1]; Case 7, recent addition of topiramate): did not reduce the frequency

Compound: OCCOCCN1CCN(C2=Nc3ccccc3Sc3ccccc32)CC1 [quetiapine]
- hallucinations ([3]; Case 2, trial of quetiapine): did not affect the hallucinations
- signs or symptoms [3]: None of these medications significantly reduced their signs or symptoms
- improvement on medications ([1]; Case 7): only modest improvement
